Our source for the Km values is article PMC7429850, “Critical enzymes for biosynthesis of cucurbitacin derivatives in watermelon and their biological significance” (Communications Biology, 2020).

This test deals with T1, ACT3 (Cla022713).
T1 construct: plant material in Methods: Number One
The format is biochemical, Citrullus lanatus. The settings on record: 10 mM acetyl-CoA, 50 mM sodium phosphate pH 7.4, 30 °C; C16-O-acetylation. The source says:
acetylation assay, product by HPLC/LC-MS, Michaelis-Menten fit on ACT3 (Cla022713)
`CC(C)(O)/C=C/C(=O)[C@](C)(O)[C@H]1[C@H](O)C[C@@]2(C)[C@@H]3CC=C4[C@@H](C[C@H](O)C(=O)C4(C)C)[C@]3(C)C(=O)C[C@]12C` [CuD]: the Km was found to be 10.4 ± 1.19 µM. For `CC(=O)OC(C)(C)/C=C/C(=O)[C@](C)(O)[C@H]1[C@H](O)C[C@@]2(C)[C@@H]3CC=C4[C@@H](C=C(O)C(=O)C4(C)C)[C@]3(C)C(=O)C[C@]12C` [CuE], the Km was determined as 7.63 ± 4.83 µM. Under `CC(=O)OC(C)(C)/C=C/C(=O)[C@](C)(O)[C@H]1[C@H](O)C[C@@]2(C)[C@@H]3CC=C4[C@@H](C[C@H](O)C(=O)C4(C)C)[C@]3(C)C(=O)C[C@]12C` [CuB] stands 11.8 ± 1.74 µM; under `CC(C)(O)/C=C/C(=O)[C@](C)(O)[C@H]1[C@H](O)C[C@@]2(C)[C@@H]3CC=C4[C@@H](C=C(O)C(=O)C4(C)C)[C@]3(C)C(=O)C[C@]12C` [CuI], 8.62 ± 0.95 µM. Then `CC(=O)OC(C)(C)/C=C/C(=O)[C@](C)(O)[C@H]1[C@H](O)C[C@@]2(C)[C@@H]3CC=C4[C@@H](C=C(O[C@@H]5O[C@H](CO)[C@@H](O)[C@H](O)[C@H]5O)C(=O)C4(C)C)[C@]3(C)C(=O)C[C@]12C` [CuE-Glu], with 11.6 ± 1.62 µM.

What is called Km is the concentration of substrate that gives half-maximal velocity.
